Laboratory results: patent US12611404B2, “Aza-aryl 1H-pyrazol-1-yl benzene sulfonamides” (ChemoCentryx, Inc., priority 2012, dated 2026)

Target: T1, CCR(9) (Homo sapiens, UniProt P51686)
T1 construct: CCR(9)-expressing cells such as T cell line MOLT-4 cells; host or cells: MOLT-4 cells
T1 sequence (P51686 1-369): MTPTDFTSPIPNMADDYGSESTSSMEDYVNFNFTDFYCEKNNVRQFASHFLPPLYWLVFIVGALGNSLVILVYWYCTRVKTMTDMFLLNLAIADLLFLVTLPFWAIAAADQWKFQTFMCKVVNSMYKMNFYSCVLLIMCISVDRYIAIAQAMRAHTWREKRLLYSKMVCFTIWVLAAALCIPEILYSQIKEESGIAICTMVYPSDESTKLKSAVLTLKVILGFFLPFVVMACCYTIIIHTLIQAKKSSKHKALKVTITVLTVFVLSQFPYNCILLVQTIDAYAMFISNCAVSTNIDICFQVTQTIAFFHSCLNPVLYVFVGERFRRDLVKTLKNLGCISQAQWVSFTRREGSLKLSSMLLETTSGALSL
Test: serum chemotaxis (migration) assay, MOLT-4 cells in human serum, TECK
Assay type: cell-based
Conditions: read-out: A2
Procedure: In vitro cell chemotaxis assays can be performed (but are not limited to this format) using the 96-well microchamber (called ChemoTX™). The ChemoTX™ system is well known to those skilled in the art as a type of chemotactic/cell migration instrument. In this assay, CCR(9)-expressing cells (such as MOLT-4) are first incubated with a compound of interest, such as a possible CCR(9) antagonist at increasing concentrations. Typically, fifty thousand cells per well are used, but the amount can range from 10^3-10^6 cells per well. The chemokine ligand (for example, CCR(9) ligand TECK, typically at 50 nM (but can range from 5-100 nM)), is placed at the lower chamber and the migration apparatus is assembled. Twenty microliters of test compound-treated cells are then placed onto the membrane. Migration is allowed to take place at 37° C. for a period of time, typically 2.5 hours for CCR(9). At the end of the incubation, the number of cells that migrated across the membrane into the lower chamber is then quantified. The efficacy of a compound as an inhibitor of chemokine-mediated cell migration can be calculated as an IC50 (the concentration needed to reduce cell migration by 50%) or IC90 (for 90% inhibition).
MOLT-4 cells were obtained from the American Type Culture Collection (Manassas, VA) and cultured in RPMI tissue culture medium supplemented with 10% fetal calf serum (FCS) in a humidified 5% CO2 incubator at 37° C. Recombinant human chemokine proteins TECK was obtained from R&D Systems (Minneapolis, MN). ChemoTX® chemotaxis microchambers were purchased from Neuro Probe (Gaithersburg, MD). CyQUANT® cell proliferation kits were purchased from Molecular Probes (Eugene, Oregon). Calcium indicator dye Fluo-4 AM was purchased from Molecular Devices (Mountain View, CA).
A serum chemotaxis assay was used to determine the efficacy of potential receptor antagonists at blocking the migration mediated through chemokine receptors, such as CCR(9). This assay was performed using the ChemoTX® microchamber system with a 5-μm pore-sized polycarbonate membrane. MOLT-4 cells were collected by centrifugation at 400×g at room temperature, then suspended at 50 million/ml in human serum, containing 50 mM HEPES (final pH of 7.2). The compound being tested or an equivalent volume of its solvent (DMSO) was then added to the cell/serum mixture at a final DMSO concentration of 0.125% (v/v), and this mixture was then incubated together at 37° C. for one hour. Separately, recombinant human TECK was diluted with chemotaxis buffer (HBSS+0.1% BSA), generally spanning a range from 0.1 nM to 500 nM, after which 29 μl of diluted chemokine was placed in the lower wells of the ChemoTX® plate. The 5-μm (pore size) polycarbonate membrane was placed onto the plate, and 20 μL of the cell/compound mixture was transferred onto each well of the membrane. The plates were incubated at 37° C. for 90 minutes, after which the polycarbonate membranes were removed and 5 μl of the DNA-intercalating agent CyQUANT (Invitrogen, Carlsbad, CA) was added to the lower wells. The amount of fluorescence, corresponding to the number of migrated cells, was measured using a Spectrafluor Plus plate reader (TECAN, San Jose, CA).
The A2 values were calculated from the following equation, comparing the efficacy of the test compound with that of the DMSO-only control at equi-active chemokine levels: Log(A2)=log[drug(M)]−log [(A′/A)−1]
where A reflects the potency of the agonist in the absence of antagonist and A′ reflects the potency of the agonist in the presence of antagonist at a given concentration of drug ([drug(M)]).

IC50 | SMILES
< 0.5 µM | CC(C)(C)c1ccc(S(=O)(=O)Nc2cc(CF)nn2-c2cccc3ncccc23)cc1
0.501 to 2.5 µM | Cc1cc(NS(=O)(=O)c2ccc(C(C)(C)C)cc2)n(-c2cnnc3ccccc23)n1
0.501 to 2.5 µM | Cc1cc(NS(=O)(=O)c2ccc(C(C)(C)C)c(Cl)c2)n(-c2cccc3ncccc23)n1
0.501 to 2.5 µM | CC(C)(C)c1ccc(S(=O)(=O)Nc2cc(C(F)(F)F)nn2-c2cccc3ncccc23)cc1
> 2.5 µM | Cc1cc(NS(=O)(=O)c2ccc(C(C)(C)C)cc2)n(-c2ncc(Cl)c3ccccc23)n1
0.501 to 2.5 µM | Cc1cc(-n2nc(C)cc2NS(=O)(=O)c2ccc(C(C)(C)C)cc2)c2ccccc2n1
0.501 to 2.5 µM | Cc1cc(NS(=O)(=O)c2ccc(C(C)(C)C)cc2)n(-c2cc(N)nc3ccccc23)n1
0.501 to 2.5 µM | Cc1cc(NS(=O)(=O)c2ccc(C(C)C)cc2)n(-c2cccc3ncccc23)n1
0.501 to 2.5 µM | Cc1cc(NS(=O)(=O)c2ccc(C(C)(C)C)cc2)n(-c2cnc(N)c3ccccc23)n1
< 0.5 µM | Cc1cc(NS(=O)(=O)c2ccc(C(C)(C)C)c(F)c2)n(-c2cccc3nc(N)ccc23)n1
0.501 to 2.5 µM | Cc1cc(NS(=O)(=O)c2ccc(C(C)(C)C)cc2)n(-c2nccc3ccccc23)n1
0.501 to 2.5 µM | Cc1cc(NS(=O)(=O)c2ccc(C(C)(C)C)cc2)n(-c2ccnc3cc(F)ccc23)n1
< 0.5 µM | Cc1cc(NS(=O)(=O)c2ccc(C(C)(C)C)cc2)n(-c2cccc3nc(N)ccc23)n1
0.501 to 2.5 µM | Cc1cc(NS(=O)(=O)c2ccc(C(C)(C)C)cc2)n(-c2ccc(C)c3ncccc23)n1
0.501 to 2.5 µM | Cc1cc(NS(=O)(=O)c2ccc(OC(C)C)c(F)c2)n(-c2cccc3ncccc23)n1
0.501 to 2.5 µM | Cc1cc(NS(=O)(=O)c2ccc(C(C)(C)C)cc2)n(-c2cccc3cnccc23)n1
> 2.5 µM | Cc1cc(NS(=O)(=O)c2ccc(OCC(C)C)cc2)n(-c2cccc3ncccc23)n1
0.501 to 2.5 µM | Cc1cc(NS(=O)(=O)c2ccc(OC(F)(F)F)cc2)n(-c2cccc3ncccc23)n1
0.501 to 2.5 µM | Cc1cc(NS(=O)(=O)c2ccc(C(C)(C)C)cc2)n(-c2nccc3ncccc23)n1

IC50 | SMILES
0.501 to 2.5 µM | CC(C)Oc1ccc(S(=O)(=O)Nc2cc(CF)nn2-c2cccc3ncccc23)cc1
0.501 to 2.5 µM | Cc1cc(NS(=O)(=O)c2ccc(C(C)(C)C)cc2)n(-c2ccc(Br)c3ncccc23)n1
0.501 to 2.5 µM | CC(C)c1ccc(S(=O)(=O)Nc2cc(C(F)(F)F)nn2-c2cccc3ncccc23)cc1
0.501 to 2.5 µM | Cc1cc(NS(=O)(=O)c2ccc(C(C)(C)C)cc2F)n(-c2cccc3ncccc23)n1
> 2.5 µM | CC(C)Oc1ccc(S(=O)(=O)Nc2cc(C(F)(F)F)nn2-c2cccc3ncccc23)cc1
< 0.5 µM | Cc1cc(NS(=O)(=O)c2ccc(C(C)(C)C)c(F)c2)n(-c2ccc(Br)c3ncccc23)n1
0.501 to 2.5 µM | Cc1cc(NS(=O)(=O)c2ccc(OC(C)C)cc2)n(-c2cccc3cnccc23)n1
0.501 to 2.5 µM | Cc1cc(NS(=O)(=O)c2ccc(C(C)(C)C)cc2)n(-c2cccc3c2ccc[n+]3[O-])n1
0.501 to 2.5 µM | CCOc1ccc(-n2nc(C)cc2NS(=O)(=O)c2ccc(C(C)(C)C)cc2)c2cccnc12
< 0.5 µM | CC(C)Oc1ccc(S(=O)(=O)Nc2cc(C(F)F)nn2-c2cccc3ncccc23)cc1
0.501 to 2.5 µM | COc1cnc(-n2nc(C)cc2NS(=O)(=O)c2ccc(C(C)(C)C)cc2)c2ccccc12
0.501 to 2.5 µM | Cc1cc(-n2nc(C)cc2NS(=O)(=O)c2ccc(C(C)(C)C)cc2)c2cccnc2c1
0.501 to 2.5 µM | CC(C)(C)c1ccc(S(=O)(=O)Nc2cc(C#N)nn2-c2cccc3ncccc23)cc1
0.501 to 2.5 µM | CC(C)c1ccc(S(=O)(=O)Nc2cc(C(F)F)nn2-c2cccc3ncccc23)cc1
< 0.5 µM | Cc1cc(NS(=O)(=O)c2ccc(C(C)(C)C)cc2)n(-c2ccc(N)c3ncccc23)n1
< 0.5 µM | Cc1cc(NS(=O)(=O)c2ccc(C(C)(C)C)cc2)n(-c2cccc3ncccc23)n1
< 0.5 µM | Cc1ccc2c(-n3nc(C)cc3NS(=O)(=O)c3ccc(C(C)(C)C)cc3)cccc2n1
< 0.5 µM | CC(C)(C)c1ccc(S(=O)(=O)Nc2cc(C(F)F)nn2-c2cccc3ncccc23)cc1
